Experimental data: patent EP4678639A1, “SALT OF BENZIMIDAZOLE DERIVATIVE” (JW Pharmaceutical Corporation, priority 2023, dated 2024)
Structures can show the parent of a compound that is named as a salt.

Key:
[1] = water
Procedure: The measurement was conducted according to the method described under "Solubility" in the General Notices of Appendix 1 of the 12th Edition of the Korean Pharmacopoeia. Each solubility was expressed by measuring the solubility of the acid addition salt itself, without conversion to the tegoprazan freebase.

[2] = Solid-state stress stability test (humidity 90 % RH); details: for Remarks: state of the solid; for Initial (%) Degradant / Initial (%) Total Related substances: Table 9, initial
Procedure: Operation and Calculation: The blank solution, standard solution, and test solution were sequentially tested under the instrument operating conditions according to the liquid chromatography method in the General Test Methods of the 12th Edition of the Korean Pharmacopoeia, and the amount of related substances was calculated using the following equation. Amount of each related; substance (%) = (AT)/(AS) × (CS)/(CT) × (Molecular weight; of the sample)/(Molecular weight; of the standard; product) × P × (1)/(RR; F) [formula] AT = Area of each related substance peak obtained from the test solution AS = Area of the tegoprazan peak obtained from the standard solution CS = Concentration of standard solution (mg/mL) CT = Concentration of test solution (mg/mL) P = Purity/Assay/Potency (%) of standard product RRF = Relative response factor (1.0)
A solid-state stability comparative test was conducted on each of the above-mentioned prepared tegoprazan acid addition salts. The stability comparative test was conducted for 1 month under the conditions shown in Table 6 below in accordance with The International Council for Harmonisation of Technical Requirements for Pharmaceuticals for Human Use (ICH) guideline, and the purity of the acid addition salt, total related substances, and the content of degradants were measured by HPLC at the initial time point and after 1 month. Total related substances and degradants were measured according to the related substance test method (HPLC).
3) Stress Stability (humidity 90 % RH)

[3] = Solid-state stress stability test (temperature 60 °C); details: for Change (%) Degradant: 1 month vs initial; for Initial (%) Degradant / Initial (%) Total Related substances: Table 8, initial
[4] = Photostability test, visible light (1.2 Mlux·hr) exposure; details: for Change (%) Degradant: Table 11, after exposure vs initial; for After (%) Degradant / After (%) Total Related substances: Table 11 under heading Visible Light (1.2 Mlux-hr) Exposure Test
Procedure: A photostability comparative test was conducted on each of the above-mentioned prepared tegoprazan acid addition salts. The test was conducted by exposing the sample to light with an energy of 200 W hr/m^2 of ultraviolet light and 1.2 Mlux hr of visible light in accordance with The International Council for Harmonisation of Technical Requirements for Pharmaceuticals for Human Use (ICH) guideline, with the samples packaged in a single PE bag and spread thinly enough to ensure exposure to the light source, taking humidity stability into consideration. The purity of the acid addition salts and the change in the amount of degradants at the initial time point and after exposure to ultraviolet light or visible light were measured by HPLC.

[5] = Photostability test, ultraviolet light (200 W·hr/m2) exposure; details: for After Ultraviolet Light Exposure (200 W hr/m2)(%) Degradant / After Ultraviolet Light Exposure (200 W hr/m2)(%) Total Related substances: Table 10, UV 200 W·hr/m2, PE bag; for Change (%) Degradant: Table 10, after UV exposure vs initial; for Initial (%) Degradant / Initial (%) Total Related substances: Table 10, initial
[6] = Solid-state accelerated stability test (40 ± 2 °C/RH 75 ± 5 %); details: for Change (%) Degradant: 1 month vs initial; for Initial (%) Total Related substances / Initial (%) Degradant: Table 7, initial; for Initial (%) Degradant: degradant of Formula 4
[7] = Liquid stability comparative test (20 mg/mL in purified water, 40 °C, 24 hours, HPLC); type: physicochemical
Procedure: The analysis conditions are as follows.
Each sample was dissolved in purified water to prepare a solution with a concentration of 20 mg/mL, stored at an external temperature of 40 °C, and analyzed by HPLC at the initial time point and after 24 hours to measure purity, and the change in the generated degradant (Formula 4) was measured. The analysis of total related substances and degradants was performed by taking a liquid from a solution prepared at a concentration of 20 mg/mL, diluting it to a concentration of 4 mg/mL with the diluent of the related substance test method (HPLC), and measuring it as a test solution, and analyzing it according to the related substance test method (HPLC).

[8] = Raw material stability test versus tegoprazan freebase (60 °C or 90 % RH); type: physicochemical
[9] = Stability test by formulation (tablets and orally disintegrating tablets, 60 °C or 90 % RH); type: physicochemical; details: tablets and orally disintegrating tablets prepared with the named salt, versus reference drug
Procedure: The amount of total related substances under stress storage conditions (temperature/humidity) was measured using liquid chromatography (HPLC) using an Infinity 1260 (Agilent) equipment. The analysis conditions are as follows.
To minimize the influence of additives, each test formulation was selected with the same additives as the reference drug (K-CAB tablets 50 mg, K-CAB orally disintegrating tablets 50 mg) disclosed in the Ministry of Food and Drug Safety Pharmaceutical Integrated Information System, and to minimize differences due to the granule manufacturing process, the formulation was prepared using the simple mixing (direct compression) method. Each formulation was as shown in Tables 16 and 17 below, and the stability conditions were conducted for each formulation under the storage conditions of 60 °C, which is a stress temperature condition, and 90 % RH, which is a stress humidity condition, respectively.
Stability tests were conducted under stress storage conditions (temperature/humidity) for each formulation. The results of measuring the amount of total related substances after storage under stress conditions for 1 week or 3 weeks are shown in FIG. 18 and FIG. 19.

[10] = 40 ± 2 °C / RH 75 ± 5 %, 1 month
[11] = liquid stability, 40 °C, 24 hours

For `Cc1nc2c(O[C@H]3CCOc4cc(F)cc(F)c43)cc(C(=O)N(C)C)cc2[nH]1` [Maleate Salt], the “solubility / aqueous solubility” value [1] was at most 1000 µg/mL, the “absorb moisture and deliquesce / melted” value ([2]; 90 % RH) was “absorb moisture and deliquesce” and the Remarks ([2]; 90 % RH, 1 month) was “Melted”. The “Initial (%) Degradant” value [2] was 0.027%, the “Initial (%) Total Related substances” value [2] was 0.357% and the “total related substances increased after 1 month” value ([3]; 60 °C) was at least 5.0%. The “After 1 Month (%) Degradant” value ([3]; 60 °C, 1 month) was 1.248%, the “After 1 Month (%) Total Related substances” value ([3]; 60 °C, 1 month) was 6.070% and the “Change (%) Degradant” value ([3]; 60 °C) was 1.221%. For the same compound, the “Initial (%) Degradant” value [3] was 0.027%, the “Initial (%) Total Related substances” value [3] was 0.357% and the “Change (%) Degradant” value [4] was 0.006%. The “Initial (%) Degradant” value ([4]; Table 11, initial) was 0.027%, the “Initial (%) Total Related substances” value ([4]; Table 11, initial) was 0.357% and the “After (%) Degradant” value [4] was 0.033%. For the same compound, the “After (%) Total Related substances” value [4] was 0.508%, the “After Ultraviolet Light Exposure (200 W hr/m2)(%) Degradant” value [5] was 0.032% and the “After Ultraviolet Light Exposure (200 W hr/m2)(%) Total Related substances” value [5] was 0.354%. The “Change (%) Degradant” value [5] was 0.005%, the “Initial (%) Degradant” value [5] was 0.027% and the “Initial (%) Total Related substances” value [5] was 0.357%. The “After 1 Month (%) Degradant” value [6, 10] was 0.083%, the “After 1 Month (%) Total Related substances” value [6, 10] was 0.679% and the “Change (%) Degradant” value ([6]; 40 ± 2 °C / RH 75 ± 5 %) was 0.056%. The “Initial (%) Total Related substances” value [6] was 0.357%, the “Initial (%) Degradant” value [6] was 0.027% and the “increase in total related substances after 1 month” value ([6]; accelerated stability) was at least 0.3%.
In the case of `Cc1nc2c(O[C@H]3CCOc4cc(F)cc(F)c43)cc(C(=O)N(C)C)cc2[nH]1` [Sulfate Salt], the “After 24 hours Purity (%)” value ([7]; 20 mg/mL in purified water, 40 °C, 24 hours) is reported as 93.95%, the “Initial Purity (%)” value ([7]; 20 mg/mL in purified water, initial time point) is reported as 99.89% and the “After 24 hours Degradant (%)” value ([7]; degradant of Formula 4, 20 mg/mL in purified water, 40 °C, 24 hours) is reported as 5.414%. The “Initial Degradant (%)” value ([7]; degradant of Formula 4, 20 mg/mL in purified water, initial time point) was 0.080%, the “Amount of Change Degradant (%)” value ([7]; initial vs after 24 hours at 40 °C) was 5.33% and the “degradants formed after 24 hours of storage” value [7, 11] was at least 5%. The purity decreased [7, 11] was “about 6%”, the “change in appearance, 60 °C” value ([8]; 60 °C, 3 weeks) was “Pungent odor” and the “change in appearance, 90 % RH” value ([8]; 90 % RH, 3 weeks) was “Pungent odor”. The “change in appearance, Initial” value ([8]; initial) was “Pungent odor”, the “amount of total related substances generated (FIG. 13)” value ([8]; stress temperature/humidity storage, compared to tegoprazan freebase) was “significantly increased” and the “amount of total related substances generated (FIGS. 18 and 19)” value ([9]; 60 °C or 90 % RH, 1 or 3 weeks) was “significantly increased”. The “degree of weight gain (FIG. 17)” value ([9]; 90 % RH, 3 weeks) was “greater”, the “After 1 Month (%) Degradant” value ([2]; 90 % RH, 1 month) was 14.500% and the “After 1 Month (%) Total Related substances” value ([2]; 90 % RH, 1 month) was 16.637%. For the same compound, the “Change (%) Degradant” value ([2]; 90 % RH, 1 month vs initial) was 14.161%, the Remarks ([2]; 90 % RH, 1 month) was “Polymorp hic Transition” and the “polymorphic transition (PXRD)” value ([2]; 90 % RH, after 1 month) was “polymorphic transition occurred”. For the same compound, the “Initial (%) Degradant” value [2] was 0.339%, the “Initial (%) Total Related substances” value [2] was 0.609% and the “After 1 Month (%) Degradant” value ([3]; 60 °C, 1 month) was 2.345%. For the same compound, the “After 1 Month (%) Total Related substances” value ([3]; 60 °C, 1 month) was 3.441%, the “change in appearance, change in the color of the solid” value ([3]; 60 °C, 1 month) was “change in appearance” and the “Change (%) Degradant” value ([3]; 60 °C) was 2.006%. The Remarks ([3]; 60 °C, 1 month, appearance) was “Discolorat ion”, the “Initial (%) Degradant” value [3] was 0.339% and the “Initial (%) Total Related substances” value [3] was 0.609%. The “Change (%) Degradant” value [4] was 1.934%, the “Initial (%) Degradant” value ([4]; Table 11, initial) was 0.339% and the “Initial (%) Purity” value ([4]; Table 11, initial) was 99.3%. The “Initial (%) Total Related substances” value ([4]; Table 11, initial) was 0.609%, the “After (%) Degradant” value [4] was 2.273% and the “After (%) Total Related substances” value [4] was 2.754%. For the same compound, the “After Ultraviolet Light Exposure (200 W hr/m2)(%) Degradant” value [5] was 1.415%, the “After Ultraviolet Light Exposure (200 W hr/m2)(%) Total Related substances” value [5] was 1.748% and the “Change (%) Degradant” value [5] was 1.076%. For the same compound, the “Initial (%) Degradant” value [5] was 0.339%, the “Initial (%) Total Related substances” value [5] was 0.609% and the “After 1 Month (%) Degradant” value [6, 10] was 0.712%. The “After 1 Month (%) Total Related substances” value [6, 10] was 1.197%, the “Change (%) Degradant” value ([6]; 40 ± 2 °C / RH 75 ± 5 %) was 0.373% and the Remarks ([6]; 40 ± 2 °C / RH 75 ± 5 %, 1 month, appearance) was “Discolorat ion”. For the same compound, the “Initial (%) Total Related substances” value [6] was 0.609%, the “Initial (%) Degradant” value [6] was 0.339% and the “increase in total related substances after 1 month” value ([6]; accelerated stability) was at least 0.3%. For the same compound, the “change in appearance of the solid” value ([6]; accelerated stability, 1 month) was “discoloration”.
